Experimental data taken from patent publication US20070190060A1, “Passive targeting of cytotoxic agents” (Wyeth, priority 2004, published 2007).
Values joined by “and” are separate entries in the source; they are usually repeats but may differ in a detail not shown here. Equal entries are not always repeated.

Experiments:
[1] = system: A431 epidermoid carcinoma xenografts; experiment: Tumor growth inhibition, subcutaneous A431 xenografts; assay type: in vivo, athymic nude mice; conditions: for average tumor size as % of the control tumors: intravenous, twenty-seven days following onset of therapy
Experimental: (§1) Subcutaneous tumors of N87, LOVO, A431/Le^y, LS174T and L2987 were grown in athymic nude mice (Charles River, Wilmington, Mass.). Two-month-old female mice were injected with respectively 5×10^6 N87, LOVO, A431/Le^y or LS174T cells per mouse. L2987 cells were injected in male nude mice that were between 7 and 8 weeks old. To grow tumors, N87 cells had to be mixed (1:1, vol/vol) with […]® (Collaborative Biomedical Products, Belford, Mass.) prior to injection. Two perpendicular diameters of the tumor were measured by means of calipers at time intervals specified in the result section. The tumor volume was calculated according to the formula of Attia&Weiss: A^2×B×0.4. A and B are symbols for the smaller and the larger tumor diameter, respectively.
[…] Mice with xenografts of approximately 80 mm^3 were selected prior to treatment. The amounts of CalichDMH or conjugate given are expressed in calicheamicn equivalents.
Both T and C are determined at the same day following initiation of treatment.

[2] = system: N87 xenografts; experiment: Tumor growth inhibition, subcutaneous N87 xenografts; assay type: in vivo, athymic nude mice
Experimental: as §1, with “respectively. The treatment schedules, dose and number of mice per group are specified in the result section and in the figure legends.” for “respectively.”
(§2) As shown in Table 2 (tumor volume reduction of CD33-tumor xenografts following treatment (T) with hp67.6-AcBut-CalichDMH and expressed as a percentage of controls treated with vehicle (T/C %)), hp67.6-AcBut-CalichDMH inhibited tumor growth of human tumor xenografts with diverse histiotypic origin. […] This value is the average tumor volume of a group of mice that were treated with hp67.6-AcBut-CalichDMH (T) expressed as a percentage of the average tumor volume of a control group (C). Both T and C are determined at the same day following initiation of treatment. The T/C-values in table II were derived from 27 independent experiments and were determined between 17 and 34 days after injection of the first dose of hp67.6-AcBut-CalichDMH. […] Significant inhibition was also observed when lower amounts of the conjugate were administered.

[3] = In vivo distribution of 125I-labeled conjugate in A431 tumor-bearing mice; set-up: species or system female nude mice
Experimental: Gemtuzumab ozogamicin was labeled with ^125I using the Bolton-Hunter reagent (NEN, Boston, Mass.). A group of 30 tumor-bearing female nude mice were injected in the lateral tail vein with ^125I-labeled conjugate 20 μCi/[…]. The tumor weight at the time of injection was approximately 1 g. Groups of 5 mice were killed by CO2 inhalation at 2, 6, 24, 48, 72 and 96 h following the injection. The amount of γ radiation in the tissues as specified in FIG. 2 was determined at these time points. Biodistribution of the conjugate was expressed as a percentage of the injected dose per gram tissue (% ID/g) or as a percentage of the blood level at a given time point (% Blood). Steadily increasing concentrations of hp67.6-AcBut-CalichDMH were exclusively observed in tumor tissue. The doubling time of accumulation is 150 h for A431 tumors.
The kinetics of hp67.6-AcBut-CalichDMH in various mouse tissues and in CD33-negative A431-tumor xenografted tumor were compared. Following injection of 200 µg (20 μCi) ^125I labeled conjugate, the amount of radioactive label was measured in various tissues at 2, 6, 24, 48, 72 and 96 h (FIG. 2). The amount of radioactive material was expressed relative to the amount present in whole blood at the time of measurement (% Blood, Y1 axes in FIG. 2). Percent blood (% Blood) is given by the formula, 100×Bq per gram tissue/Bq per gram blood. In addition, the amount of radioactive material was also expressed relative to total amount of conjugate given (% ID/g, Y2 axes in FIG. 2). Only a marginal amount of 125I labeled conjugate is retained in the brain. […] The % Blood was on average 3.5%.

[4] = system: PC14PE6 xenografts; experiment: Tumor growth inhibition, subcutaneous PC14PE6 xenografts; assay type: in vivo, athymic nude mice
[5] = system: LOVO xenografts; experiment: Tumor growth inhibition, subcutaneous LOVO xenografts; assay type: in vivo, athymic nude mice; conditions: for T/C (%): LOVO, 4.00 μg per dose, Q4D×3
Experimental: as §1, with “respectively. The treatment schedules, dose and number of mice per group are specified in the result section and in the figure legends.” for “respectively.”
as §2

[6] = system: LNCaP xenografts; experiment: Tumor growth inhibition, subcutaneous LNCaP xenografts; assay type: in vivo, athymic nude mice
[7] = system: HT29 xenografts; experiment: Tumor growth inhibition, subcutaneous HT29 xenografts; assay type: in vivo, athymic nude mice; conditions: 4.00 μg per dose, Q4D×3, 33 days after first dose
[8] = system: A431/Le^Y xenografts; experiment: Tumor growth inhibition, subcutaneous A431/LeY xenografts; assay type: in vivo, athymic nude mice
Experimental: as §1, with “respectively. […]” for “respectively.”
As shown in Table 2 (tumor volume reduction of CD33-tumor xenografts following treatment (T) with hp67.6-AcBut-CalichDMH and expressed as a percentage of controls treated with vehicle (T/C %)), hp67.6-AcBut-CalichDMH inhibited tumor growth of human tumor xenografts with diverse histiotypic origin. […] This value is the average tumor volume of a group of mice that were treated with hp67.6-AcBut-CalichDMH (T) expressed as a percentage of the average tumor volume of a control group (C). Both T and C are determined at the same day following initiation of treatment. […]

[9] = system: MDAMB435/5T4 xenografts; experiment: Tumor growth inhibition, subcutaneous MDAMB435/5T4 xenografts; assay type: in vivo, athymic nude mice
[10] = system: L2987 xenografts; experiment: Tumor growth inhibition, subcutaneous L2987 xenografts; assay type: in vivo, athymic nude mice
Experimental: as §1, with “respectively. The treatment schedules, dose and number of mice per group are specified in the result section and in the figure legends.” for “respectively.”
as §2

[11] = system: PC3MM2 xenografts; experiment: Tumor growth inhibition, subcutaneous PC3MM2 xenografts; assay type: in vivo, athymic nude mice; conditions: 4.00 μg per dose, Q4D×3, 29 days after first dose
[12] = system: KB 8.5 xenografts; experiment: Tumor growth inhibition, subcutaneous KB 8.5 xenografts; assay type: in vivo, athymic nude mice; conditions: 4.00 μg per dose, Q4D×3, 22 days after first dose
[13] = intraperitoneally Q4D×3, equivalent or higher doses than hp67.6-AcBut-CalichDMH (FIGS. 1B and 1C)
[14] = intravenous administration, same dose, frequency and interval (Q4D×3)
[15] = 1.00 μg per dose, 28 days after first dose
[16] = 2.00 μg per dose, 28 days after first dose
[17] = 2.00 μg per dose, 30 days after first dose
[18] = 4.00 μg per dose, Q4D×3, 28 days after first dose
[19] = 4.00 μg per dose, Q4D×3, 30 days after first dose
[20] = 2.00 μg per dose, 29 days after first dose
[21] = 4.00 μg per dose, Q4D×3, 29 days after first dose

Which “tumor growth inhibition of A431 xenografts” value (shortened to “tumor growth inhibition”) [1, 13] does the source give for CCN(C(C)=O)[C@H]1CO[C@@H](O[C@H]2[C@H](O[C@H]3C#C/C=C\C#C[C@]4(O)CC(=O)C(NC(=O)OC)=C3/C4=C\CSSC(C)(C)CC(=O)NN)O[C@H](C)[C@@H](NO[C@H]3C[C@H](O)[C@H](SC(=O)c4c(C)c(I)c(O[C@@H]5O[C@@H](C)[C@H](O)[C@@H](OC)[C@H]5O)c(OC)c4OC)[C@@H](C)O3)[C@@H]2O)C[C@@H]1OC [CalichDMH, N-acetyl-γ-calicheamicin dimethyl hydrazide] here?
The value was “did not inhibit tumor growth”.

And the “tumor growth inhibition” value [1, 14]?
The value was “did not yield significant tumor growth inhibition”.

What does the source list for “hp67.6-AcBut-CalichDMH: antibody against CD33 (hp67.6) bound to N-acetyl gamma calicheamicin dimethyl hydrazide by the acid labile AcBut linker”?
growth of A431 xenografts ([1]; 3 doses of 4 μg, intraperitoneally Q4D×3, up to 27 days following treatment): significantly (p=0.03) inhibited; T/C (%) ([1]; A431, 1.00 μg per dose, 27 days after first dose): 146%; T/C (%) ([1]; A431, 2.00 μg per dose, 27 days after first dose): 72%; time xenografts remained significantly (p=0.004) smaller than the controls ([1]; A431, 2 μg/dose, intraperitoneally Q4D×3 (FIG. 1A)): 21 days; T/C (%) ([1]; A431, 4.00 μg per dose, Q4D×3, 27 days after first dose): 21% and 35%; T/C (%) ([1]; A431, 4.00 μg per dose, Q4D×3, 28 days after first dose): 12%; average tumor size as % of the control tumors ([1]; A431, 2 μg Q4D×3): 23%; average tumor size as % of the control tumors ([1]; A431, 4 μg Q4D×3): 11%; tumor growth inhibition of A431 xenografts [1, 14]: Significant growth inhibition; T/C (%) [2, 15]: 55%; T/C (%) [2, 16]: 41%; T/C (%) [2, 17]: 54%; T/C (%) ([2]; 4.00 μg per dose, Q4D×3, 27 days after first dose): 19%; T/C (%) [2, 18]: 60%; T/C (%) [2, 19]: 48%; T/C (%) ([2]; 4.00 μg per dose, Q4D×3, 31 days after first dose): 39%; T/C (%) ([2]; 4.00 μg per dose, Q4D×3, 33 days after first dose): 39% and 42%; % ID/g value in function of time, tumor tissue ([3]; A431 tumor tissue, 2 to 96 h): steady increase; doubling time of accumulation in tumor ([3]; A431 tumors, 125I-labeled conjugate, lateral tail vein): 150 h; % Blood (100×Bq per gram tissue/Bq per gram blood), brain, on average ([3]; brain, within 96 hours, 125I-labeled conjugate): 3.5%; time of highest % Blood-value ([3]; heart, intestine and spleen, after injection, then steadily decreased): 2 h; time of peak of the % Blood-value ([3]; liver and striated muscle): 48 h; % ID/g in function of time, all the other tissues examined ([3]; normal tissues, 2 to 96 h): decreased in function of time; time after which % Blood-value reached a plateau ([3]; skin): 24 h; T/C (%) ([4]; 1.00 μg per dose, 29 days after first dose): 52%; T/C (%) ([4]; 2.00 μg per dose, 17 days after first dose): 59%; T/C (%) [4, 20]: 42%; T/C (%) ([4]; 4.00 μg per dose, Q4D×3, 17 days after first dose): 27%; T/C (%) ([4]; 4.00 μg per dose, Q4D×3, 22 days after first dose): 15%; T/C (%) [4, 21]: 14%; T/Cmin value (minimum T/C-value observed during an experiment) ([5]; LOVO colon carcinoma, 4 μg CalichDMH per mouse, intraperitoneally Q4D×3 (FIG. 5)): exceptionally high; T/C (%) ([5]; 25 days after first dose): 80%; T/C (%) ([5]; 29 days after first dose): 47% and 76%; T/C (%) ([6]; 0.50 μg per dose, 28 days after first dose): 102%; T/C (%) [6, 15]: 59%; T/C (%) [6, 16]: 30%; T/C (%) [6, 20]: 34%; T/C (%) [6, 18]: 24%; T/C (%) [6, 21]: 7%; T/C (%) [7]: 36%; T/C (%) [8, 20]: 37%; T/C (%) [8, 21]: <1%; T/C (%) [9, 20]: 45%; T/C (%) [9, 21]: 32%; T/C (%) ([9]; 4.00 μg per dose, Q4D×3, 34 days after first dose): 30%; T/C (%) ([10]; 0.75 μg per dose, 21 days after first dose): 33%; T/C (%) ([10]; 1.50 μg per dose, 21 days after first dose): 77%; T/C (%) [10, 17]: 5%; T/C (%) ([10]; 3.00 μg per dose, 21 days after first dose): 5%; T/C (%) [10, 19]: 1%; T/C (%) ([10]; 4.00 μg per dose, Q4D×3, 35 days after first dose): 1%; T/C (%) [11]: 33%; T/C (%) [12]: 27%

Which “tumor growth inhibition” value [1, 13] does the source give for “hp67.6-Amide-CalichDMA: hp67.6 linked to CalichDMA with the acid stabile Amide (4-mercapto-4-methyl-pentanoic acid) linker” here?
Its value is “did not inhibit tumor growth”.

What about the “tumor growth inhibition” value [1, 14] of the same molecule?
The value was “did not yield significant tumor growth inhibition”.
